# From ChEMBL document CHEMBL4190191, “Cyclic Diarylheptanoids from Corylus avellana Green Leafy Covers: Determination of Their Absolute Configurations and Evaluation of Their Antioxidant and Antimicrobial Activities” (J Nat Prod, 2017)
# Legend:
# Format in all cases: functional
# Conditions in all cases: read-out: DIZ
# Bacillus cereus [1] = assay: Antimicrobial activity against Bacillus cereus DSM 4384 assessed as growth inhibition at 7 ug per disc after 24 to 48 hrs (reference value: 0 millimeter)
# Pseudomonas aeruginosa = assay: Antimicrobial activity against Pseudomonas aeruginosa DSM 50071 assessed as growth inhibition at 7 ug per disc after 24 to 48 hrs (reference value: 0 millimeter)
# Escherichia coli = assay: Antimicrobial activity against Escherichia coli DSM 8579 assessed as growth inhibition at 7 ug per disc after 24 to 48 hrs (reference value: 0 millimeter)
# Staphylococcus aureus = assay: Antimicrobial activity against Staphylococcus aureus DSM 25923 assessed as growth inhibition at 7 ug per disc after 24 to 48 hrs (reference value: 0 millimeter)
# Bacillus cereus [2] = assay: Antimicrobial activity against Bacillus cereus DSM 4313 assessed as growth inhibition at 7 ug per disc after 24 to 48 hrs (reference value: 0 millimeter)
structure (smiles),measurement,setting,value
CN(C)[C@@H]1C(O)=C(C(N)=O)C(=O)[C@@]2(O)C(O)=C3C(=O)c4c(O)cccc4[C@@](C)(O)[C@H]3C[C@@H]12 [TETRACYCLINE],zone of inhibition at 7 µg/disc,Bacillus cereus [1],8.67 mm
same,zone of inhibition at 7 µg/disc,Pseudomonas aeruginosa,9.67 mm
same,zone of inhibition at 7 µg/disc,Escherichia coli,12.7 mm
same,zone of inhibition at 7 µg/disc,Staphylococcus aureus,11.3 mm
same,zone of inhibition at 7 µg/disc,Bacillus cereus [2],10.3 mm
